Test results taken from PMC9854712 (Antioxidants, 2023).
Like-named read-outs stand apart in the source and are kept apart here.

How the values were obtained:
MCF-7 cells [1] = tested on: MCF-7 cells; design: method as in PMID 36257283; details: parent NSAIDs; cited from earlier work
HT-29 cells [2] = details: cited from earlier work
HTB-54 cells [3] = tested on: HTB-54 cells; design: method as in PMID 36257283; details: parent NSAIDs; cited from earlier work
[4] = tested on: panel of 60 human tumor cell lines; design: method as in PMID 19549304; details: same cell line panel; cited from earlier work
MDA-MB-231 cells = assay: MTT cell viability assay, MDA-MB-231; type: cell-based; details: Homo sapiens, MDA-MB-231, 48 h, read-out: Cell growth % at 10 µM, MDA-MB-231
Method: (§1) The cell lines were obtained from the American Type Culture Collection (ATCC). Five tumor cell lines (MDA-MB-231, MCF-7, HCT116, HTB-54, and DU-145) and two non-tumorigenic cells (184B5 and BEAS-2B) were grown in RPMI 1640 medium (Gibco), and the HT-29 tumor cell line was grown in McCoy’s medium. Both mediums were supplemented with 10% fetal bovine serum (FBS; Gibco) and 1% antibiotics (10.00 units/mL penicillin and 10.00 μg/mL streptomycin; Gibco). Cells were preserved in tissue culture flasks at 37 °C and 5% CO2. The culture medium was replaced every three days.
(§2) The effect of each compound on cell viability was tested using the MTT assay. […] Selected compounds were then tested at seven different concentrations (0.5–100 μM) in MCF-7, HCT116, HT-29, HTB-54, 184B5 and BEAS-2B cells. Cells were seeded at 10^4 per well onto flat-bottomed 96-well culture plates. They were treated with either DMSO or increasing concentration of the corresponding compound for 48 h. Then, they were incubated with 20 μL of 3-(4,5-dimethylthiazol-2-yl)-2,5-diphenyltetrazolium bromide (MTT) (2 mg /mL stock; Aldrich) for 2,5 h and analyzed for their ability to generate a purple formazan dye. These formazan crystals were dissolved in 50 μL of DMSO. The absorbance was measured at a wavelength of 550 nm and the ratio of viable cells was calculated.
(§3) Results are expressed as cell viability % at 10 μM. Selectivity index were calculated as the ratio of the IC50 values determined for the non-malignant and the tumor cells in breast (IC50 (184B5)/IC50 (MCF-7)) and lung (IC50 (BEAS-2B)/IC50 (HTB-54)) cell lines. Data were obtained from at least three independent experiments performed in triplicates.

AChE = target: T1, AChE (Rattus norvegicus, UniProt P37136); assay: AChE inhibition by Ellman's method (rat frontal cortex homogenate); type: biochemical
T1 construct: from tissue; host or cells: frontal cortex of male Wistar rats (crude homogenate)
T1 sequence (P37136 32-614): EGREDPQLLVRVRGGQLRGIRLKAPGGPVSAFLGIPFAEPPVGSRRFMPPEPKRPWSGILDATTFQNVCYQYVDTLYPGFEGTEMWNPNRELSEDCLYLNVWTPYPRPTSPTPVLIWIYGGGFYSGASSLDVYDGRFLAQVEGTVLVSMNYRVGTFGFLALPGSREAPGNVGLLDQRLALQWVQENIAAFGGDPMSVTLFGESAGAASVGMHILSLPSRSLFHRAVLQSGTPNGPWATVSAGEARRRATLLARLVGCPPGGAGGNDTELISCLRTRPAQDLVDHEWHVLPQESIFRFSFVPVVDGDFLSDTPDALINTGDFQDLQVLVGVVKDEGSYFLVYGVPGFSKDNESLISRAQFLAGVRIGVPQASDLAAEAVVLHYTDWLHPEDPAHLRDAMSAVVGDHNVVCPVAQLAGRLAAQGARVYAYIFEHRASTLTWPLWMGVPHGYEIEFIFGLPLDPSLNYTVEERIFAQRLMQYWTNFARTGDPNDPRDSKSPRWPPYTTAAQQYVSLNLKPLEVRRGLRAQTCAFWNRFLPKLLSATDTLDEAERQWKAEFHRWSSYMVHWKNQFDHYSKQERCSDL
Method: Frontal cortex tissue obtained from male Wistar rats was homogenized in 39 volumes of 75 mM sodium phosphate buffer (pH 7.4). A mixture of 260 μL containing the compounds assessed, acetylthiocholine iodide and 5 μL tissue homogenate was incubated for 8 min. The reaction was then terminated by adding 50 μL 3% (w/v) sodium dodecyl sulphate followed by 50 μL 0.2% (w/v) 5,5′-dithio-bis(2-nitrobenzoic) acid to produce the yellow anion of 5-thio-2-nitro-benzoic-acid. The extent of the color production was measured spectrophotometrically at 405 nm using Multiskan Ex (Thermo Electron Corporation). […] Results are expressed as the mean ± SD and each experiment was repeated three times.

MCF-7 cells [5] = assay: MTT cell viability assay, MCF-7; type: cell-based; details: for IC50: Homo sapiens, MCF7, MTT, 48 h; for SI (breast): IC50 (184B5)/IC50 (MCF-7)
Method: as §1, §2, §3

HTB-54 cells [6] = assay: MTT cell viability assay, HTB-54; type: cell-based; details: for viability at 10 µM / IC50: HTB-54, 48 h, MTT; for viability at 10 µM: read-out: Cell growth % at 10 µM, HTB-54; for SI (lung): IC50 (BEAS-2B)/IC50 (HTB-54)
Method: as §1, §2, §3

[7] = tested on: HTB-54, DU-145, HT-29 and MDA-MB-231 cancer cell lines; assay: cells; type: cell-based; details: against the panel of the four cancer cell lines
Method: as §1, §2
As a first approach, all the compounds were tested in vitro against lung (HTB-54), prostatic (DU-145), colon (HT-29), and triple-negative breast (MDA-MB-231) cancer cell lines at two concentrations (50 and 10 µM) for 48 h. Then, the MTT colorimetric assay was used to evaluate cell proliferation after the treatment. The data are expressed as the percentage of cell growth ± SD in at least three independent experiments performed in quadruplicates (Table S1).

HCT116 cells = assay: MTT cell viability assay, HCT116; type: cell-based; details: Homo sapiens, HCT-116, 48 h
Method: as §1, §2, §3

BEAS-2B cells = assay: MTT cell viability assay, BEAS-2B (non-tumorigenic); type: cell-based; details: Homo sapiens, 48 h, nonmalignant bronchial epithelium
Method: as §1, §2, §3

184B5 cells = assay: MTT cell viability assay, 184B5 (non-tumorigenic); type: cell-based; details: Homo sapiens, 48 h, nonmalignant mammary gland
Method: as §1, §2, §3

DU-145 cells = assay: MTT cell viability assay, DU-145; type: cell-based; details: Homo sapiens, DU-145, 48 h, read-out: Cell growth % at 10 µM, DU-145
Method: as §1, §2, §3

HT-29 cells [8] = assay: MTT cell viability assay, HT-29; type: cell-based; details: Homo sapiens; for viability at 10 µM: HT-29, 10 µM, 48 h, read-out: Cell growth % at 10 µM, HT-29; for IC50: HT-29, 48 h
Method: as §1, §2, §3

in vitro = details: for Papp at 20 h, 500 µg/mL: PAMPA; for Pe ± SD: porcine brain lipid, 20 h, 25 °C; for BBB Permeation (Experimental): class from PAMPA-BBB Pe
Method: Franz diffusion cells (Microette 8910130, Hanson Research) were employed to perform this assay. The compounds were dissolved in DMSO at 5 mg/mL and diluted to 500 µg/mL with phosphate-buffered saline (PBS)/EtOH (7:3) to make a stock solution. A total of 10 µL of porcine brain lipid (PBL) diluted in dodecane solution (20 mg/mL) was spread onto a PVDF membrane that was placed between the donor and acceptor compartments, forming a sandwich structure. Then, 4.5 mL of PBS/EtOH (7:3) was added to the acceptor compartment and 700 µL of the stock solution was added to the donor cell. […] The concentration of the compound was calculated from the standard curve and expressed as permeability (Pe) by the following formula [84]:Permeability (cm/s): Pe = {−ln [1 − CA(t)/Ceq]}/[A ∗ (1/VD + 1/VA) ∗ t]
A = filter area ([…]), VD = donor cell volume (0.7 mL), VA = acceptor cell volume (4.5 mL), t = incubation time, CA (t) = compound concentration in acceptor cell at time t, CD (t) = compound concentration in donor cell at time t, and Ceq = [CD(t) ∗ VD + […] ∗ VA]/(VD + VA).
Every sample was analyzed at least in duplicate and the data were reported as mean ± SD.

SMILES | viability at 10 µM (MDA-MB-231 cells) [%] | inhibition at 1 µM (AChE; at 10^−6 M, Ellman's method) [%] | viability at 10 µM (HTB-54 cells [6]) [%] | viability at 10 µM (DU-145 cells) [%] | viability at 10 µM (HT-29 cells [8]) [%] | also measured
COc1ccc2c(c1)c(CC(=O)O)c(C)n2C(=O)c1ccc(Cl)cc1 [Indomethacin, 2-[1-(4-chlorobenzoyl)-5-methoxy-2-methylindol-3-yl] acetic acid] | – | – | – | – | – | IC50 (MCF-7 cells [1]): > 100 µM; IC50 (HT-29 cells [2]; parent NSAIDs): > 100 µM; IC50 (HTB-54 cells [3]): > 100 µM
O=c1[nH]cc(F)c(=O)[nH]1 [5-fluorouracil] | – | – | – | – | – | GI50 [4]: 57.5 µM
COc1cc2ncnc(Nc3ccc(F)c(Cl)c3)c2cc1OCCCN1CCOCC1 [gefitinib] | – | – | – | – | – | GI50 [4]: 3.24 µM
C=CC[Se]C(=O)C(C)c1ccc2cc(OC)ccc2c1 [Compound 16a, Se-allyl (S)-2-(6-methoxynaphtalen-2-yl)propaneselenoate] | 33.8 ± 5.6 | 20.3 ± 4.2 | 30.9 ± 6.7 | 18.8 ± 6.3 | 49.9 ± 5.6 | IC50 (MCF-7 cells [5]): 10.9 ± 1.3 µM; SI (breast) (MCF-7 cells [5]): 1.0; IC50 (HTB-54 cells [6]): 9.9 ± 0.3 µM; SI (lung) (HTB-54 cells [6]): 1.5; viability at 10 µM [7]: < 55%; IC50 (HCT116 cells): 27.1 ± 2.7 µM; IC50 (BEAS-2B cells): 14.7 ± 8.7 µM; IC50 (184B5 cells): 11.1 ± 1.1 µM; IC50 (HT-29 cells [8]): 9.4 ± 0.6 µM
C=CC[Se]C(=O)c1sccc1Cl [Compound 10a, Se-allyl 3-chlorothiophene-2-carboselenoate] | 41.3 ± 3.5 | 42.5 | 27.1 ± 11.2 | 33.4 ± 6.4 | 61.5 ± 17.6 | IC50 (AChE): 2.4 ± 1.2 µM; % AChE Inhibition (AChE; at 10^−6 M, Ellman's method): 42.5 ± 6.4%; Papp at 20 h, 500 µg/mL (in vitro): 38.6 ± 1.3 ×10⁻⁶ cm/s; fold higher Pe compared to galantamine (in vitro; PAMPA-BBB): 3 fold; Pe ± SD (in vitro; PAMPA-BBB): 38.63 ×10⁻⁶ cm/s; BBB Permeation (Experimental) (in vitro): High (High BBB permeation predicted; Pe (10^−6 cm s^−1) > 4.0)
CC(C)Cc1ccc(C(C)C(=O)O)cc1 (stereo not shown) [Ibuprofen, 2-(4-isobutylphenyl) propanoic acid] | – | – | – | – | – | IC50 (HT-29 cells [2]; parent NSAID): > 50 µM
C=CC[Se]C(=O)C(C)c1ccc(CC(C)C)cc1 (stereo not shown) [Compound 15a] | 38 ± 5.4 | 19.3 ± 0.1 | 38 ± 7.1 | 19.1 ± 7 | 49 ± 7.2 | IC50 (MCF-7 cells [5]): 11.2 ± 0.2 µM; SI (breast) (MCF-7 cells [5]): 1.1; IC50 (HTB-54 cells [6]): 23.5 ± 5.8 µM; SI (lung) (HTB-54 cells [6]): 0.5; viability at 10 µM [7]: < 55%; IC50 (HCT116 cells): 10.2 ± 0.1 µM; IC50 (BEAS-2B cells): 11.1 ± 2.6 µM; IC50 (184B5 cells): 11.5 ± 1.4 µM; IC50 (HT-29 cells [8]): 9.2 ± 0.7 µM
O=C1[O][Pt]2([NH][C@@H]3CCCC[C@H]3[NH]2)[O]C1=O [oxaliplatin] | – | – | – | – | – | GI50 [4]: 2.89 µM
C=CC[Se]C(=O)c1ccccc1Nc1cccc(C)c1C [Compound 18a, Se-allyl 2-(2,3-dimethylphenyl)aminebenzoselenoate] | 85.9 ± 9.5 | 18.4 ± 3.6 | 40.9 ± 18.5 | 74.7 ± 13.7 | 71.5 ± 11.7 | –
COc1ccc2c3c1O[C@H]1C[C@@H](O)C=C[C@@]31CCN(C)C2 [Galantamine, galantamine, reference compound] | – | – | – | – | – | Papp at 20 h, 500 µg/mL (in vitro): 12.3 ± 3.1 ×10⁻⁶ cm/s; Pe ± SD (in vitro; PAMPA-BBB): 12.27 ×10⁻⁶ cm/s; BBB Permeation (Experimental) (in vitro): High (High BBB permeation predicted; Pe (10^−6 cm s^−1) > 4.0)
C#CC[Se]C(=O)c1cccs1 [Compound 9b, Se-prop-2-ynyl thiophene-2-carboselenoate] | 70.2 ± 6.9 | 20.6 ± 2.7 | 58.9 ± 7.8 | 22.3 ± 2.7 | 76 ± 13.5 | –
C=CC[Se]C(=O)c1ccccc1O [Compound 13a, Se-allyl 2-hydroxybenzoselenoate] | 77.1 ± 12.6 | 51.8 ± 4 | 40.9 ± 4.9 | 29.5 ± 4.3 | 88.8 ± 8.6 | IC50 (AChE): 5.2 ± 2.3 µM; stability during the PAMPA-BBB experiment (in vitro; observation in words): signs of degradation
C#CC[Se]C(=O)c1cccnc1Cl [Compound 8b, Se-prop-2-ynyl 2-chloropyridine-3-carboselenoate] | 92.9 ± 16.5 | 17.1 ± 10.1 | 99.4 ± 16.2 | 77.1 ± 13.9 | 87.7 ± 10.1 | –
C=CC[Se]C(=O)/C=C/c1ccccc1 [Compound 5a, Se-allyl 3-phenylprop-2E-eneselenoate] | 91.1 ± 16.8 | 8.7 ± 4.9 | 46.1 ± 5.6 | 83.3 ± 7.8 | 87.6 ± 7.9 | –
C=CC[Se]C(=O)c1ccccc1Nc1cccc(C(F)(F)F)c1 [Compound 19a, Se-allyl 2-(3-trifluoromethylphenyl)aminobenzoselenoate] | 81.6 ± 9.7 | 19.3 ± 2 | 16.3 ± 7.6 | 17 ± 2.9 | 46 ± 8.7 | –
C=CC[Se]C(=O)c1ccccc1 [Compound 2a, Se-allyl benzoselenoate] | 37.9 ± 3.6 | 22.6 ± 1.6 | 43.2 ± 9 | 65.6 ± 5.6 | 85.3 ± 19.4 | –
C=CC[Se]C(=O)c1ccno1 [Compound 12a, Se-allyl isoxazole-5-carboselenoate] | 96.8 ± 15.8 | 4.2 ± 6.7 | 95.5 ± 5.9 | 62.7 ± 4.7 | 70.7 ± 10.7 | –
